Assay [1] deals with MBP-specific T cell clones. Briefly: T cell clone (TCC) proliferation assay, fine mapping of MBP epitopes. The format is cell-based, human. The settings on record: TCC from MS patients and healthy individuals; proliferative response. The procedure:
MBP-specific T cell lines (TCL) are generated from 8 MS patients and 2 healthy control donors. PBMC from each subject are separated as described above and plated out at 1×10^6 cells/ml in 6-well plates in the presence of MBP (50 μg/ml); a portion of PBMC from each subject is regularly frozen and stored for subsequent restimulations. Seven days later the cells are fed with fresh medium containing 2% IL-2 (Lymphocult-HT; Biotest LTD., Birmingham, UK), and on day 12 of culture all cells are restimulated with antigen, IL-2 and irradiated (2500 Rad) autologous PBMC as a source of antigen presenting cells (APC), at a cell ratio of 1T cell:5 APC. Cells are expanded in IL-2 every 3-4 days, and on day 14 are restimulated with antigen, IL-2 and PBMC, as described above. On the day of the first restimulation cells are examined for specific proliferation to MBP. Briefly, 2×10^4 T cells and 1×10^5 irradiated autologous PBMC are cultured in triplicate, in 96-well round-bottom plates, in the presence of MBP. Cells are cultured for 2 days and pulsed with (^3H)-Thymidine at 0.4 μCi/well during the last 18 hours of the culture. Cells are then harvested as described above, and a TCL is considered to be MBP-specific with a δcpm>1000 and a SI>3.
Following 3 restimulation/expansion cycles TCL are cloned using PHA (Sigma, Poole, Dorset, UK)) in the presence of autologous irradiated PBMC as APC. T cells are plated under limiting dilution conditions at 0.1 cell/well, 0.3 cell/well and 1 cell/well and cultured in Terasaki plates (Nunc International, Costar) with 1×10^4 irradiated PBMC, 5 μg/ml PHA, and 2% IL-2. After 10-12 days, growth-positive wells are expanded onto 96-well round-bottom plates, using 1×10^5 irradiated PBMC, 5 μg/ml PHA and IL-2. Three days later wells are fed with fresh medium containing IL-2, and on day 7 the clones are expanded onto 48-well plates using 5×10^5 irradiated PBMC, PHA and IL-2; at this point clones are tested in proliferation assays for specific responses to MBP. MBP-specific clones are expanded a week later onto 24-well plates, using 1×10^6 irradiated PBMC with PHA or Dynabeads (Dynal, UK) and IL-2. The clones are maintained in 24-well plates using a 7-10 day restimulation/expansion cycle, essentially as described above. The ability of T cell clones (TCC) to recognize the panel of MBP peptides is tested by proliferation assays, as described above.
TCC are generated from 8 MS patients and 2 healthy individuals, and used to clarify the fine specificity of the peptide regions identified in the kinetic response assay. The specificity of each TCC is tested by its proliferative response to the panel of 15-mer peptides. Clone SD:A7 recognised region 1-24, and within this region this TCC responded to a.a. 5-19. Region 30-54 is recognised by 4 clones (MS49:D3, MS49:C8, MS49:A8, MS49:B6) and the epitope within this region is 30-44. […] Five clones (MS43:A7, MS41:B6, MS41:A2, MS41:C6, N5:8) recognize a.a. 83-99 which is contained in region 75-99. One patient produced TCC specific for a.a. 110-124 (MS60:A2, MS60:B3), contained within the 105-129 pool, and another TCC from the same patient is specific to 130-144 (MS60:E1), found within the 120-144 region. Five individuals produce clones which recognize epitopes within the region 135-159: MS60:F7, MS60:D1, MS59:F1 and N5:19 recognizes a.a. 140-154; MS57:A1 is specific to 140-149, and TCC MS17:A3 responds to sequence 130-144. […] Lastly, region 150-170 is recognized by 2 clones specific to a.a. 156-169.

In assay [2] the test system is fixed Mgar (HLA-DR2+ve) APC presenting to T cell clones. Briefly: Antigen-presentation assay using an APIPS (fixed APC) with human T cell clones. It is filed as cell-based. The settings on record: for presentation by fixed APC without further processing (apitope): fixed vs live APC, T cell clone proliferation; for apitope within MBP region 125-148: live or p-formaldehyde-fixed Mgar cells, T cell clone MS17:A3, 48 h. As for the experimental part: Presentation of the peptides to T cell clones is measured by proliferation. APC are fixed in 0.5% paraformaldehyde and plated at 1×10^5 cells per well of a 96-well tissue culture plate. T cells clones are plated at 2×10^4 cells per well in the presence of varying concentrations of peptide. After incubation for 48 h at 37° C., proliferation is measured by [^3H] thymidine incorporation over 16-20 h. Results are compared with the ability of T cells to respond to the epitope presented by live APC.
In order to investigate whether various MBP peptides are apitopes, their capacity to be presented to T-cells by fixed APC is investigated. Live or […] Mgar (HLA-DR2+ve) cells are pre-pulsed with the peptide in serum, or serum alone for 3.5 hours. Excess peptide is then removed from cells and the appropriate T cell clone added. The T cell proliferative response is measured by ^3H-thymidine uptake.
(§1) For any given epitope, there may exist one or more apitopes, capable of being presented to APC without further processing. The presence of apitopes within two regions of MBP is investigated by incubating live or p-formaldehyde-fixed Mgar (HLA-DR2+ve) cells are incubated with overlapping peptides in serum from MBP regions 77-100 (FIG. 12) and 125-148 (FIG. 13) or in serum alone. T cells were added and after 72 h (FIG. 12) or after 48 h (FIG. 13) the T cell proliferative response was measured by ^3H-thymidine uptake. For MBP 77-100, the T cells are isolated from a DR2:MBP 82-100 transgenic mouse, whereas for MBP 130-144 the T cell clone MS17:A3 is used.

Another assay relates to HLA-DQ6. Briefly: Antigen presentation assay, HLA-DQ6 transfected L-cells. It is filed as cell-based, human. The source says: MBP peptides 30-44, 130-144 and 139-153 were synthesized using L-amino acids and standard F-moc chemistry on an Abimed AMS 422 multiple peptide synthesiser.
L-cells transfected with either HLA-DQ6, HLA-DR2a or HLA-DR2b, or Mgar cells (EACC, Porton Down, UK) which express HLA-DQ, DP and DR were used as APCs.
T-cell clones MS 49:D3 and MS17:A2 were generated from MS patients and clone N5:19 was generated from a normal individual. All three clones were DR2 positive.
Antigen presenting cells were incubated with the various concentrations of peptide and the appropriate T-cells. Proliferation, and therefore activation, of the T-cells was measured by [^3H]-Thymidine incorporation, and expressed as the stimulation index (SI=corrected counts per minute (ccpm) culture containing peptide/ccpm culture without peptide).

The subject of assay [3] is fixed Mgar (HLA-DR2+ve) APC presenting to T cells from DR2:MBP 82-100 transgenic mouse. Briefly: Antigen-presentation assay using an APIPS (fixed APC) with T cells from DR2:MBP82-100 transgenic mouse. It is filed as cell-based. The settings on record: live or p-formaldehyde-fixed Mgar cells, 72 h. The procedure: Presentation of peptides to T cells isolated from DR2:MBP82-100 transgenic mouse was essentially as described above except APC were plated at 5×10^5 cells per well, T cells were plated at 1×10^5 cells per well, and incubation was allowed to proceed for 72 h prior to the addition of [^3H]-thymidine.
as §1

Assay [4] deals with MHC class I or II molecule. The note with it: cited from earlier work.
Assay [5] concerns draining lymph node cells. In words: Tolerance experiments with 89-101 and 87-96: lymph node cell recall proliferation. The format is in vivo, Mice. As for the experimental part: In order to test this possibility tolerance experiments are performed with the 89-101 and 87-96 peptides (FIGS. 15a and b).
Mice received 200 μg of peptide in PBS or PBS alone intraperitoneally on days −8, −6 and −4 prior to 100 μg of peptide in complete Freunds adjuvant on day 0. After 10 days, draining lymph node cells (6×10^5 per well) were cultured in X-Vivo 15 medium supplemented with 5×10^−5M 2-mercaptoethanol and […] L-glutamine with or without antigen for 72 hours. Cultures were pulsed for the final 16 hours with 0.5 μCi ^3H.thymidine and incorporation measured using a liquid scintillation counter. Results are expressed as means counts per minute for triplicate cultures.

“Also recorded” adds a separate entry of the source.

Consider “MBP 156-169: MBP a.a. 156-169 recognised by 2 clones; possibly the same as 156-170 (DHARHGFLPRHRDT; UniProt P02686 156-169, looked up, fragment)”, for which the “T cell clones (TCC) recognising the peptide” value (from here on “T cell clones”) in assay [1] is listed as 2.

On to “MBP 156-170: myelin basic protein peptide, residues 156-170; epitope but not apitope (DHARHGFLPRHRDTG)”, for which the “presentation by fixed APC without further processing (apitope)” value in assay [2] is on record as “an epitope but not an apitope; also recorded: requires further processing for presentation to T cells”. For RASDYKSAHKGFKGV [MBP 130-144], the “T cell clones” value in assay [1] is on record as “responds”. Further, in assay [2], the “presentation by fixed APC without further processing (apitope)” value is listed as “shown to act as apitopes; also recorded: found to be apitopes; also recorded: can be presented by fixed APC without further processing”.

On to “H-Ala-Ser-Asp-Tyr-Lys-Ser-Ala-His-Lys-Gly-Phe-Lys-Gly-Val-Asp-NH2 (H-ASDYKSAHKGFKGVD-NH2) [MBP 131-145]”, for which the “apitope within MBP region 125-148” value in assay [2] is on record as “shown to act as apitopes”. In the assay on HLA-DQ6, the HLA-DQ6 binding result is on record as “HLA-DQ6 binding”. On to SDYKSAHKGFKGVDA [MBP 132-146], for which the “apitope within MBP region 125-148” value in assay [2] is reported as “shown to act as apitopes”. On the same count and under the same terms, for DYKSAHKGFKGVDAQ [MBP 133-147] the value was “shown to act as apitopes”. As to TQDENPVVHFFKNIV [MBP 80-94], the “presentation by fixed APC without further processing (apitope)” value in assay [2] is “found to be apitopes”. Further, in assay [3], the “apitope within MBP region 77-100” value is given as “shown to act as apitopes”. For the substance “MBP 135-149: MBP peptide identified as apitope in WO 03/064464 (ASQKRPSQRHGSKYL; UniProt P02686 135-149, looked up, fragment)”, the “identified as apitope in WO 03/064464” value in assay [4] is given as “apitopes”. Regarding “MBP 138-152: MBP peptide identified as apitope in WO 03/064464 (KRPSQRHGSKYLATA; UniProt P02686 138-152, looked up, fragment)”, the “identified as apitope in WO 03/064464” value in assay [4] was “apitopes”. As for DENPVVHFFKNIVTP [MBP 82-96], the “apitope within MBP region 77-100” value in assay [3] is “shown to act as apitopes”. As for “MBP 137-151: MBP peptide identified as apitope in WO 03/064464 (QKRPSQRHGSKYLAT; UniProt P02686 137-151, looked up, fragment)”, the “identified as apitope in WO 03/064464” value in assay [4] was “apitopes”. As for “MBP 140-149: MBP 10-mer peptide 140-149 (PSQRHGSKYL; UniProt P02686 140-149, looked up, fragment)”, the “T cell clones” value in assay [1] is listed as “specific”. Take “MBP 87-96: MBP 10-mer peptide 87-96, contains the epitope 89-94 (SRPHLIRLFS; UniProt P02686 87-96, looked up, fragment)”: in assay [5] (200 μg i.p. days -8, -6, -4, priming 87-96 in CFA day 0, lymph node cells day 10), the “effect of peptide as tolerogen on recall responses after priming with 87-96” value was “suppressed recall responses to both 87-96 and 89-101”. In assay [5] (PBS pre-treated mice, lymph node cells), the “in vitro recall response after priming with 87-96” value is recorded as “strong recall response”. Consider “MBP 134-148: MBP peptide identified as apitope in WO 03/064464 (MASQKRPSQRHGSKY; UniProt P02686 134-148, looked up, fragment)”, for which the “identified as apitope in WO 03/064464” value in assay [4] is on record as “apitopes”.

On to “MBP 60-74: MBP 15-mer peptide 60-74 (QDTAVTDSKRTADPK; UniProt P02686 60-74, looked up, fragment)”, for which the “T cell clones” value in assay [1] is recorded as “One”. With “MBP 110-124: myelin basic protein peptide, residues 110-124 (RPSESDELQTIQEDS)”, the “T cell clones” value in assay [1] was “TCC specific”. In assay [2], the “presentation by fixed APC without further processing (apitope)” value is recorded as “shown to act as apitopes; also recorded: found to be apitopes; also recorded: can be presented by fixed APC without further processing”. In the case of “MBP 5-19: MBP 15-mer peptide a.a. 5-19 (AGKRELNAEKASTNS; UniProt P02686 5-19, looked up, fragment)”, the “T cell clones” value in assay [1] is “responded”. With “MBP 136-150: MBP peptide identified as apitope in WO 03/064464 (SQKRPSQRHGSKYLA; UniProt P02686 136-150, looked up, fragment)”, the “identified as apitope in WO 03/064464” value in assay [4] was “apitopes”. Take MPVVHFFKNIVTPRT [MBP 84-98]: in assay [3], the “apitope within MBP region 77-100” value is on record as “shown to act as apitopes”. Same read-out and setting: for QDENPVVHFFKNIVT [MBP 81-95] the value was “shown to act as apitopes”; for ENPVVHFFKNIVTPR [MBP 83-97], “shown to act as apitopes”.

Values taken from patent US8961986B2, “Peptide composition” (Apitope Technology (Bristol) Limited, priority 2000, dated 2015).
